Data taken from US20240400577A1, “MODULATORS OF PROTEIN KINASES” (VIBLIOME THERAPEUTICS, LLC, priority 2021, published 2024).

Legend:
Assay in all cases: Kinase panel enzymatic inhibition assay (Nanosyn)
Format in all cases: biochemical
SYK = biological target: T1, SYK (Homo sapiens, UniProt P43405); conditions: ATP at Km; 30-minute pre-incubation; read-out: kinase inhibition in terms of IC50, SYK
T1 construct: purchased Nanosyn
Method in brief: (§1)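 Single-point screen: compound 5 μM, ATP at Km per kinase, 30 min pre-incubation. Readout by mobility shift (Caliper LabChip), ADP detection or TR-fluorescence. Reported as % inhibition or IC50.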

TAK1-TAB1 = biological target: T2, TAK1-TAB1 (Homo sapiens, UniProt O43318); conditions: ATP at Km; 30-minute pre-incubation; read-out: kinase inhibition in terms of IC50, TAK1-TAB1
T2 construct: purchased Nanosyn
T2 sequence (O43318 with tags, fused parts or gaps limits assumed): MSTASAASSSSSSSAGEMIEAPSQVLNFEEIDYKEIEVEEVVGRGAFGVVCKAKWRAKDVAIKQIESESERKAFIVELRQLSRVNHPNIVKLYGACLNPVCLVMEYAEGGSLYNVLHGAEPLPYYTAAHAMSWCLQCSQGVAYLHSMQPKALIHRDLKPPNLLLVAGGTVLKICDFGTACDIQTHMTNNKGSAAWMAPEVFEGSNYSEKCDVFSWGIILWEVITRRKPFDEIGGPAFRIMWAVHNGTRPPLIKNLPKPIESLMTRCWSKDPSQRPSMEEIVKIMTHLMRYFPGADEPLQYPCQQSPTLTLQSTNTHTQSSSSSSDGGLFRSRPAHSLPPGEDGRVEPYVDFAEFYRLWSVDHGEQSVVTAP
Method in brief: as §1

JAK3 = biological target: T3, JAK3 (Homo sapiens, UniProt P52333); conditions: ATP at Km; 30-minute pre-incubation; read-out: kinase inhibition in terms of IC50, JAK3
T3 construct: Nanosyn (contract laboratory that ran the panel)
T3 sequence (P52333 1-1124): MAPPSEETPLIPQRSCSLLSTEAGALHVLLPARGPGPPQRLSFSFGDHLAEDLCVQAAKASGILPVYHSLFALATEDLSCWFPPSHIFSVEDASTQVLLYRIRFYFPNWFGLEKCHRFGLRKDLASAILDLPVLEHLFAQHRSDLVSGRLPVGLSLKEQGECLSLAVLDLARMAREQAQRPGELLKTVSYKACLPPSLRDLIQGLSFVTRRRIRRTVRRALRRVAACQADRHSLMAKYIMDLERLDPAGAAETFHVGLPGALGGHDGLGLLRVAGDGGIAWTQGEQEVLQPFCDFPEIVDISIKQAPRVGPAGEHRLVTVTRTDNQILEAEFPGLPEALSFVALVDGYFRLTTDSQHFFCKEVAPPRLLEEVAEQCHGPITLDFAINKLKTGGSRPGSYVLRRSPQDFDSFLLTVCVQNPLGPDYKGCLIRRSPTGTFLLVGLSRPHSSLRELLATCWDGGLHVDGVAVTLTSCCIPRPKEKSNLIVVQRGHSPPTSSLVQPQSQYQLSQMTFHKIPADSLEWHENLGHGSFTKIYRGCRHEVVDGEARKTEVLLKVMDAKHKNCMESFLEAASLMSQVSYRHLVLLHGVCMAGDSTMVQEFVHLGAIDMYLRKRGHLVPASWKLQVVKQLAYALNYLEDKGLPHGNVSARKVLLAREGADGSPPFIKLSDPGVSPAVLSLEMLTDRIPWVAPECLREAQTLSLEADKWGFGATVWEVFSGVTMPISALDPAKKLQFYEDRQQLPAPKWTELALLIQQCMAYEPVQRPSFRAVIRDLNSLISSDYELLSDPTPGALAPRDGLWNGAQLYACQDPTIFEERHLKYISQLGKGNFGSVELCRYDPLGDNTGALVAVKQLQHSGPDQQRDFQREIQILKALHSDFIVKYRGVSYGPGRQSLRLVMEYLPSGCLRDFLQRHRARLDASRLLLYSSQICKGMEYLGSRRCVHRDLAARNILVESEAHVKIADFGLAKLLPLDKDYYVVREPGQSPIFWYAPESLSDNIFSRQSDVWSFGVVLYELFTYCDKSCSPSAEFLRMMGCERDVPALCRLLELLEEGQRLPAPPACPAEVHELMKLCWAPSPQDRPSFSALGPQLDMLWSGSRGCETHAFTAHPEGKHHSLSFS
Method in brief: as §1

SMILES	IC50 (SYK) [µM]	IC50 (TAK1-TAB1) [µM]	IC50 (JAK3) [µM]
COc1cc2nccc(Oc3ccc(NC(=O)c4cc(S(C)(=O)=O)n(-c5ccc(F)cc5)n4)c(F)c3)c2cc1OC [Ex71, N-(4-((6,7-dimethoxyquinolin-4-yl)oxy)-2-fluorophenyl)-1-(4-fluorophenyl)-5-(methylsulfonyl)-1H-pyrazole-3-carboxamide]	≥ 10	≥ 10	≥ 10
COc1cc2nccc(Oc3ccc(NC(=O)c4cc(S(C)(=O)=O)n(-c5ccc(F)cc5)n4)cc3)c2cc1OC [Ex72, N-(4-((6,7-dimethoxyquinolin-4-yl)oxy)phenyl)-1-(4-fluorophenyl)-5-(methylsulfonyl)-1H-pyrazole-3-carboxamide]	1 to 10	≥ 10	≥ 10
COc1cc2nccc(Oc3ccc(NC(=O)c4cc(S(C)(=O)=O)n(-c5ccc(F)cc5)n4)cc3F)c2cc1OC [Ex73, N-(4-((6,7-dimethoxyquinolin-4-yl)oxy)-3-fluorophenyl)-1-(4-fluorophenyl)-5-(methylsulfonyl)-1H-pyrazole-3-carboxamide]	≥ 10	≥ 10	≥ 10
